For assay [1], the target named is T1, hLBAT (Homo sapiens, UniProt Q14973).
T1 construct: expressed in transfected cells; kept under Geneticin selection
T1 sequence (Q14973 1-349): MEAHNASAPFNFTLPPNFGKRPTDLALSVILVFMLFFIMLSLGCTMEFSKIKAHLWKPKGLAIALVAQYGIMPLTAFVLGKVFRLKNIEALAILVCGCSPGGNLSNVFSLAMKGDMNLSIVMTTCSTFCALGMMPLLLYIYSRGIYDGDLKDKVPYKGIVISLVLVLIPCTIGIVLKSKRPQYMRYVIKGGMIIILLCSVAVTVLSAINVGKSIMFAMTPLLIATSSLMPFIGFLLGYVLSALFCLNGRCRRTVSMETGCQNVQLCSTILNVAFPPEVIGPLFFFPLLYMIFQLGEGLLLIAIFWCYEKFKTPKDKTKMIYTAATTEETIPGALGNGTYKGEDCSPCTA
The assay can be described thus: LBAT (h/m) assay: 3H-taurocholic acid uptake in human LBAT-overexpressing cells. Type of assay: cell-based. The following applies: 0.3 μM 3H-taurocholic acid + 7.5 μM cold taurocholic acid, 20 minutes at 37° C. Put shortly:
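Human or mouse LBAT-overexpressing cells given 10-point inhibitor series with 0.3 μM 3H-taurocholic acid plus cold taurocholic acid (7.5 μM human, 25 μM mouse), 0.2% DMSO, for 20 min at 37° C. Stopped on ice, washed with 1 mM unlabelled taurocholic acid; uptake measured by scintillation counting.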

Assay [2] deals with T2, hIBAT (Homo sapiens, UniProt Q12908).
T2 construct: expressed in transfected cells; kept under Puromycin selection
T2 sequence (Q12908 1-348): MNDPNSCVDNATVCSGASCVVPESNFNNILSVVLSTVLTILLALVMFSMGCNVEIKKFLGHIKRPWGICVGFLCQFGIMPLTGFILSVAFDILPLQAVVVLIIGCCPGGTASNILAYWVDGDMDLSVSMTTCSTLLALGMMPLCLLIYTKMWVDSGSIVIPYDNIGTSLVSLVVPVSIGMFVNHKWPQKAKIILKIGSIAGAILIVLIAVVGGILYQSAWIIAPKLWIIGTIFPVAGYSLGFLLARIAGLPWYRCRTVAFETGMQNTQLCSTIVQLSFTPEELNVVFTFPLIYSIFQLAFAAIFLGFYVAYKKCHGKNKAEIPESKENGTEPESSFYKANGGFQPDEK
The assay can be described thus: IBAT (h/m) assay: 3H-taurocholic acid uptake in human IBAT-overexpressing cells. Type of assay: cell-based. The following applies: 0.25 μM 3H-taurocholic acid + 5 μM cold taurocholic acid, 20 minutes at 37° C., highest test concentration 10 μM. The method in brief: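 Human or mouse IBAT-overexpressing cells cultured 48 h, then exposed for 20 min at 37 °C to compounds (top 10 μM, 3-fold, 10 points; 0.2% DMSO) with 0.25 μM 3H-taurocholic acid plus 5 μM cold taurocholic acid. Uptake stopped on ice, cells washed with cold 1 mM taurocholic acid, radioactivity counted by scintillation.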

A word on the IC50: it is the concentration that gives 50% inhibition.

As to `CCCCC1(CCCC)CN(c2ccccc2)c2cc(OC)c(CSCC(=O)O)cc2S(=O)(=O)C1` [Example 31, 2-(((3,3-dibutyl-7-methoxy-1,1-dioxido-5-phenyl-2,3,4,5-tetrahydro-1,5-benzothiazepin-8-yl)methyl)thio)acetic acid], the IC50 in assay [1] was > 3330 nM; in assay [2], 1.3 nM.

As for `CCCCC1(CCCC)CN(c2ccc(F)cc2)c2cc(OC)c(CSCC(=O)O)cc2S(=O)(=O)C1` [Example 32, 2-(((3,3-dibutyl-5-(4-fluorophenyl)-7-methoxy-1,1-dioxido-2,3,4,5-tetrahydro-1,5-benzothiazepin-8-yl)methyl)thio)acetic acid], the half-maximal inhibitory concentration (IC50) in assay [1] is > 3330 nM; in assay [2], 0.6 nM.

Regarding `CCCCC1(CCCC)CN(c2ccccc2)c2cc(OC)c(CSC(C)(C)C(=O)O)cc2S(=O)(=O)C1` [Example 43, 2-(((3,3-dibutyl-7-methoxy-1,1-dioxido-5-phenyl-2,3,4,5-tetrahydro-1,5-benzothiazepin-8-yl)methyl)thio)-2-methylpropanoic acid], the values for the IC50 in assay [1] and in assay [2] were 251 nM and 861 nM, respectively.

For `CCCCC1(CC)CN(c2ccccc2)c2cc(N(C)C)c(CSCC(=O)O)cc2S(=O)(=O)N1` (centres unmarked) [Example 46, 2-(((3-butyl-7-(dimethylamino)-3-ethyl-1,1-dioxido-5-phenyl-2,3,4,5-tetrahydro-1,2,5-benzothiadiazepin-8-yl)methyl)thio)acetic acid], the IC50 was > 1000 nM in assay [1] and 4.8 nM in assay [2].

With `CCCC[C@@H]1CN(c2ccccc2)c2cc(N(C)C)c(CSCC(=O)O)cc2S(=O)(=O)N1` [Example 49, (R)-2-(((3-butyl-7-(dimethylamino)-1,1-dioxido-5-phenyl-2,3,4,5-tetrahydro-1,2,5-benzothiadiazepin-8-yl)methyl)thio)acetic acid], the IC50 was 248 nM in assay [1] and 2320 nM in assay [2].

Regarding `CCCC[C@@H]1CN(c2ccccc2)c2cc(SC)c(CSCC(=O)O)cc2S(=O)(=O)N1` [Example 50, (R)-2-(((3-butyl-7-(methylthio)-1,1-dioxido-5-phenyl-2,3,4,5-tetrahydro-1,2,5-benzothiadiazepin-8-yl)methyl)thio)acetic acid], the IC50 in assay [1] is 50 nM; in assay [2], 558 nM.

Regarding `CCCC[C@@H]1CN(c2ccccc2)c2cc(OC)c(CSCC(=O)O)cc2S(=O)(=O)N1` [Example 51, (R)-2-(((3-butyl-7-methoxy-1,1-dioxido-5-phenyl-2,3,4,5-tetrahydro-1,2,5-benzothiadiazepin-8-yl)methyl)thio)acetic acid], the IC50 in assay [1] came out at 142 nM; in assay [2] it was 2610 nM.

`CCCCC1(C)CN(c2ccccc2)c2cc(N(C)C)c(CSCC(=O)O)cc2S(=O)(=O)N1` (centres unmarked) [Example 52, 2-(((3-Butyl-7-(dimethylamino)-3-methyl-1,1-dioxido-5-phenyl-2,3,4,5-tetrahydro-1,2,5-benzothiadiazepin-8-yl)methyl)thio)acetic acid]: the IC50 is > 1000 nM in assay [1] and 7.4 nM in assay [2].

With `CCCCC1(C)CN(c2ccccc2)c2cc(OC)c(CSCC(=O)O)cc2S(=O)(=O)N1` (centres unmarked) [Example 53, 2-(((3-butyl-7-methoxy-3-methyl-1,1-dioxido-5-phenyl-2,3,4,5-tetrahydro-1,2,5-benzothiadiazepin-8-yl)methyl)thio)acetic acid], the IC50 is > 1000 nM in assay [1] and 14 nM in assay [2].

`CCCCC1(C)CN(c2ccccc2)c2cc(SC)c(CSCC(=O)O)cc2S(=O)(=O)N1` (centres unmarked) [Example 54, 2-(((3-Butyl-3-methyl-7-(methylthio)-1,1-dioxido-5-phenyl-2,3,4,5-tetrahydro-1,2,5-benzothiadiazepin-8-yl)methyl)thio)acetic acid]: the results for the IC50 in assay [1] and in assay [2] were > 1000 nM and 0.1 nM, respectively.

(Values after US20240067617A1 (Albireo AB, priority 2022, published 2024).)
